This is an account of results in PMC4942689, “Deciphering the function of the CNGB1b subunit in olfactory CNG channels” (Scientific Reports, 2016).

One experiment concerns the target T1, CNGA2RE:A4RE:B1b (Rattus norvegicus, UniProt A0A8I5ZN27+Q00195+Q64359, R430E/R538E).
T1 construct: expressed in transfected cells; host or cells: Xenopus laevis oocytes (cRNA injection), excised inside-out patches
In words: Concentration-activation relationship and activation by fluorescent ligands, patch-clamp. The experiment is classed as biochemical. The procedure:
(§1) In order to determine the apparent affinity of the modulatory subunits in heterotetrameric CNGA2:A4:B1b channels for cGMP, we coexpressed each of them with disabled neighbored subunits, generating themselves activation effects only at much higher ligand concentrations. In case of two well-separated current components, this would allow us to determine the EC50 value for the CNGB1b and CNGA4 subunit in functional heterotetrameric channels. Patch-clamp experiments were performed using an Axopatch 200B amplifier (Molecular Devices LLC, CA, U.S.A.) in the inside-out configuration. The patch pipettes for recording of macroscopic currents were pulled from borosilicate glass tubing (outer diameter 2.0 mm, inner diameter 1.0 mm; Hilgenberg GmbH, Germany). […] The patches were formed as pushed inside-out patches. […] Cyclic nucleotide concentration jumps were performed using a double-barreled glass pipette mounted on a piezo-driven device. Intracellular (bath) and extracellular (pipette) solutions contained (mM) 150 KCl, 1 EGTA, 5 Hepes, pH = 7.4 with KOH. […] Currents in the absence of the cyclic nucleotide were subtracted. All patches included in this study were first tested for channel expression in the presence of a saturating ligand concentration. Only patches with large current, i.e. a large number of channels, were included in our statistics. The currents were measured at +10 mV or, if mentioned, at +100 mV. Fits of equations to data points were performed with the 8.1G® software (OriginLab Corporation, Northampton, U.S.A.). Concentration-activation relationships were obtained by relating the actual current amplitude, I, to the maximum current amplitude elicited by a saturating concentration of ligand, Imax, and plotting this ratio as function of the ligand concentration, x.

For the next experiment, the target named is T2, CNGA2TM:A4RE:B1bRE (Rattus norvegicus, UniProt A0A8I5ZN27+Q00195+Q64359, R1106E/R430E/T539M).
T2 construct: expressed in transfected cells; host or cells: Xenopus laevis oocytes (cRNA injection), excised inside-out patches
In words: Ligand binding, confocal patch-clamp fluorometry. Also noted: key: +: ligand binding to the respective modulatory subunits was either observed or not; −: ligand binding to the respective modulatory subunits was either observed or not. The settings on record: 10 μM; construct CNGA2TM:A4RE:B1bRE. From the text:
The channels to be studied were expressed in Xenopus oocytes. We first tested the subunit composition in our channels when coexpressing different combinations of subunits by single-channel recordings. For CNGA2:A4, CNGA2:B1b and CNGA2:A4:B1b channels we exclusively obtained the specific and easily distinguishable single-channel activity reported earlier when injecting respective amounts of RNA[7][13]. We therefore assumed that the channels formed had always the expected subunit composition. The specific binding of cyclic nucleotides and the activation of the CNG channels were measured in parallel by means of confocal patch-clamp fluorometry in excised patches, using fluorescent cyclic nucleotide derivatives. The method has been described previously.
To verify the hypothesis that the CNGB1b subunit in CNGA2:A4:B1b channels binds cyclic nucleotides, we coexpressed CNGB1b with CNGA4RE and either CNGA2RE or CNGA2TM and measured ligand binding in the presence of 10 μM fcGMP. […]
The ligand binding was measured in macropatches by patch-clamp fluorometry[41][42] combined with confocal microscopy. […] To distinguish between the fluorescence of the unbound ligands from that of the bound ligands, a second dye, DY647 (Dyomics, Jena, Germany), was added to the bath solution. […]

Experiment [1] relates to homotetrameric CNGA2TM (T539M) channels. The settings on record: cited from earlier work.
The subject of the next experiment is CNGA4. On the set-up: method as in Nache et al., 2012; key: +: ligand binding to the respective modulatory subunits was either observed or not; −: ligand binding to the respective modulatory subunits was either observed or not. The settings on record: 10 μM; construct CNGA4; ref Nache et al., 2012; cited from earlier work.
A further experiment has as its system CNGA2RE:A4. Also noted: method as in Nache et al., 2012; key: +: ligand binding to the respective modulatory subunits was either observed or not; −: ligand binding to the respective modulatory subunits was either observed or not. Conditions: 10 μM; construct CNGA2RE:A4; ref Nache et al., 2012; cited from earlier work.
For another experiment, the target named is T3, CNGA2:A4 channels (Rattus norvegicus, UniProt Q00195+Q64359).
T3 construct: expressed in transfected cells; host or cells: Xenopus laevis oocytes (cRNA injection), excised inside-out patches
Nature of the experiment: Concentration-activation relationship, inside-out patch-clamp. The experiment is classed as biochemical. As to the method: as §1, with “Patch-clamp” for “In order to determine the apparent affinity of the modulatory subunits in heterotetrameric CNGA2:A4:B1b channels for cGMP, we coexpressed each of them with disabled neighbored subunits, generating themselves activation effects only at much higher ligand concentrations. In case of two well-separated current components, this would allow us to determine the EC50 value for the CNGB1b and CNGA4 subunit in functional heterotetrameric channels. Patch-clamp”, “x. The concentration-activation data were fitted using the Hill equation where EC50 is the ligand concentration of half maximum effect and H the Hill coefficient.” for “x.”

A further experiment deals with T4, CNGA2:B1b channels (Rattus norvegicus, UniProt A0A8I5ZN27+Q00195).
T4 construct: expressed in transfected cells; host or cells: Xenopus laevis oocytes (cRNA injection), excised inside-out patches
The experiment is described as above. Type of experiment: biochemical. As to the method: as §1, with “Patch-clamp” for “In order to determine the apparent affinity of the modulatory subunits in heterotetrameric CNGA2:A4:B1b channels for cGMP, we coexpressed each of them with disabled neighbored subunits, generating themselves activation effects only at much higher ligand concentrations. In case of two well-separated current components, this would allow us to determine the EC50 value for the CNGB1b and CNGA4 subunit in functional heterotetrameric channels. Patch-clamp”, “x. The concentration-activation data were fitted using the Hill equation where EC50 is the ligand concentration of half maximum effect and H the Hill coefficient.” for “x.”

“And” between values parts separate entries of the source, which are not always exact repeats. Equal entries are not always repeated. Where two headings read alike, the source gives them in different places.

T1 sequence (Q00195 whole entry R538E): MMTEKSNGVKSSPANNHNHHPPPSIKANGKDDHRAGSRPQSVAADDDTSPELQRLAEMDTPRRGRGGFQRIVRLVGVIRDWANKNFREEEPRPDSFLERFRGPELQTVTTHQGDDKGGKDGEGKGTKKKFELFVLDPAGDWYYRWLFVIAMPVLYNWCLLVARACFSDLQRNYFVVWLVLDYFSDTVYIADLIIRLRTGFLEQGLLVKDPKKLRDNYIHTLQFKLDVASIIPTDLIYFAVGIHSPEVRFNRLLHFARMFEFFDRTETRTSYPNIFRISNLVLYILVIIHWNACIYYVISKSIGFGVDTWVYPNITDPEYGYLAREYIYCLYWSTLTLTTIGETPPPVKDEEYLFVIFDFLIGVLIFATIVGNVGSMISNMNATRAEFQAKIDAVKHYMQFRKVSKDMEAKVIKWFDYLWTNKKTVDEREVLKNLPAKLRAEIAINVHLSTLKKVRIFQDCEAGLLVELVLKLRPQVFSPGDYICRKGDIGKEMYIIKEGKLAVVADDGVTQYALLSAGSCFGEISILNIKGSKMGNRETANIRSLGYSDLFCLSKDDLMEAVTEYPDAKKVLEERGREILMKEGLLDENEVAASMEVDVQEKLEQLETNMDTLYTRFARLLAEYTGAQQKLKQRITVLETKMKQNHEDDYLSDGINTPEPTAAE
T1 sequence (Q64359 whole entry R430E): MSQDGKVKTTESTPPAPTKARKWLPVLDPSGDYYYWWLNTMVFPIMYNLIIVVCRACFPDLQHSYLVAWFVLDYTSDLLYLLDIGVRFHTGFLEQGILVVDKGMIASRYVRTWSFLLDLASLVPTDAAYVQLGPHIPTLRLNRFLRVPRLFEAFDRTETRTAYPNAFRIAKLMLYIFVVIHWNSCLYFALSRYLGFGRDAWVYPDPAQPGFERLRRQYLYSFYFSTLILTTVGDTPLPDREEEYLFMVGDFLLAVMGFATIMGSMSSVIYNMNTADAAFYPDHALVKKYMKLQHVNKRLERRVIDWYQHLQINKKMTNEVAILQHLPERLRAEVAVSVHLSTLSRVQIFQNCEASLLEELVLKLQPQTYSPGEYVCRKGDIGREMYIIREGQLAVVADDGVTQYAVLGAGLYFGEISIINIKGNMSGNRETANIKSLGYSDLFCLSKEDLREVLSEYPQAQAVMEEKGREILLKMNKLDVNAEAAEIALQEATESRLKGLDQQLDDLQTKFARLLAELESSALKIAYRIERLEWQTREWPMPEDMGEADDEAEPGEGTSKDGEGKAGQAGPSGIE
T1 sequence (A0A8I5ZN27 1-858 isoform A0A8I5ZN27-2, stated change not applied): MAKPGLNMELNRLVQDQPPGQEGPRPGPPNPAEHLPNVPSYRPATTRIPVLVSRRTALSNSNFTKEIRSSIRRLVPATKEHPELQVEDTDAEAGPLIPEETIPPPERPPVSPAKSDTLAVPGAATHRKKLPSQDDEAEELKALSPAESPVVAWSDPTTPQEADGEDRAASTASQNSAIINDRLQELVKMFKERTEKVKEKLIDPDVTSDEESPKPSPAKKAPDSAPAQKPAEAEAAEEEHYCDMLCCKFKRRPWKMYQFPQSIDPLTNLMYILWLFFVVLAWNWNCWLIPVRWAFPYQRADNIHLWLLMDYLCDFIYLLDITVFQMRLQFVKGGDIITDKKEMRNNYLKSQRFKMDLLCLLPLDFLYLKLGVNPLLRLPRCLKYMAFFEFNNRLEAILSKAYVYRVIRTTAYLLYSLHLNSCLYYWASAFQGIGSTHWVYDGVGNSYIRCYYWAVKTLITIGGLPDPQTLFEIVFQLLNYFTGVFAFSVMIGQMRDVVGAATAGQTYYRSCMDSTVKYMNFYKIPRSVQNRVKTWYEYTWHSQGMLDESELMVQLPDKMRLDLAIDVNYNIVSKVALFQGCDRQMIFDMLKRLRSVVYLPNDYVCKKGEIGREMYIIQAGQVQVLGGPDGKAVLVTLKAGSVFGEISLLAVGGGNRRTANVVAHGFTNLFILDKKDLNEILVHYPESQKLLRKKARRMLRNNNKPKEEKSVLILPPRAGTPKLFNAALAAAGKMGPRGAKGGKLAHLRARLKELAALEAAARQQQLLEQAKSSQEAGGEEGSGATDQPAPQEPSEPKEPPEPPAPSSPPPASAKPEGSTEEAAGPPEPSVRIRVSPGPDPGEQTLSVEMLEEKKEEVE
T2 sequence (Q00195 whole entry T539M): as the sequence (Q00195 whole entry R538E) above, with E538R, T539M counted along it
T2 sequence (Q64359 whole entry R430E): as the sequence (Q64359 whole entry R430E) above
T2 sequence (A0A8I5ZN27 1-858 isoform A0A8I5ZN27-2 R657E): as the sequence (A0A8I5ZN27 1-858 isoform A0A8I5ZN27-2, stated change not applied) above, with R657E counted along it
T4 sequence (Q00195 whole entry): as the sequence (Q00195 whole entry R538E) above, with E538R counted along it
T4 sequence (A0A8I5ZN27 1-858 isoform A0A8I5ZN27-2): as the sequence (A0A8I5ZN27 1-858 isoform A0A8I5ZN27-2, stated change not applied) above
T3 sequence (Q00195 whole entry): as the sequence (Q00195 whole entry R538E) above, with E538R counted along it
T3 sequence (Q64359 whole entry): as the sequence (Q64359 whole entry R430E) above, with E430R counted along it

For 8-[DY-547]-AET-cGMP [fcGMP], the “activation (I/Imax)” value on CNGA2RE:A4RE:B1b (10 μM fcGMP, normalized to current at 4 mM cGMP) turned out to be 1.6 ± 0.4%. For the same molecule, the “Ligand binding to CNGA4” value was “−” on CNGA2TM:A4RE:B1bRE, “−” in the experiment on CNGA4 and “+” in the experiment on CNGA2RE:A4. Further, the “Ligand binding to CNGB1b” value on CNGA2TM:A4RE:B1bRE is “−”. Besides, in experiment [1] (10 μM fcGMP, homotetrameric CNGA2TM), the activation result is reported as “negligible activation”.
On to `Nc1nc2c(ncn2[C@@H]2O[C@@H]3COP(=O)(O)O[C@H]3[C@H]2O)c(=O)[nH]1` [cGMP], for which the EC50 on CNGA2:A4 channels (Equation 1) is 1.28 µM; at CNGA2:B1b channels (Equation 1) it was 1.9 µM; on CNGA2RE:A4RE:B1b (high affinity component (action of CNGB1b), CNGA2RE:A4RE:B1b, Equation 2, +100 mV, read-out: EC50,h), 3.6 µM; on CNGA2RE:A4RE:B1b (low affinity component, CNGA2RE:A4RE:B1b, Equation 2, +100 mV, read-out: EC50,l), 178 µM; in experiment [1] (CNGA2TM, Equation 1, ref Nache et al., 2012), 10.4 µM. In addition, the H on CNGA2:A4 channels (Hill coefficient) was 1.7; at CNGA2:B1b channels (Hill coefficient), 2.0. This molecule gave an H1 on CNGA2RE:A4RE:B1b (Hill coefficient of low affinity component, CNGA2RE:A4RE:B1b, +100 mV) of 1.2. Besides, the “a (contribution of the high affinity component)” value on CNGA2RE:A4RE:B1b (fraction, CNGA2RE:A4RE:B1b, Equation 2) was 0.07. The “maximum contribution of CNGB1b to channel activation (a)” value at CNGA2RE:A4RE:B1b (of the maximum channel activity generated by all subunits, CNGA2RE:A4RE:B1b) was 7.2% and ~ 7%.
